Laboratory results taken from patent US20260345619A1 (Principia Biopharma Inc., priority 2023, published 2026).
pIC50: −log10 of the molar value.

Key:
[1] = Participants with ≥2, ≥3, ≥4, ≥5 additional reliever puffs of salbutamol/albuterol or levosalbutamol/levalbuterol; assay type: in vivo, human; settings: for Number of participants with ≥2 additional reliever puffs vs baseline on 2 consecutive days / Number of participants with ≥3 additional reliever puffs vs baseline on 2 consecutive days / Number of participants with ≥4 additional reliever puffs vs baseline on 2 consecutive days / Number of participants with ≥5 additional reliever puffs vs baseline on 2 consecutive days / Participants with ≥2 additional reliever puffs vs baseline on 2 consecutive days, figure in parentheses (share) / Participants with ≥3 additional reliever puffs vs baseline on 2 consecutive days, figure in parentheses (share) / Participants with ≥4 additional reliever puffs vs baseline on 2 consecutive days, figure in parentheses (share) / Participants with ≥5 additional reliever puffs vs baseline on 2 consecutive days, figure in parentheses (share): 12-week treatment period
Protocol: An analysis was performed on the number of participants with ≥2, ≥3, ≥4, and ≥5 additional reliever puffs of salbutamol/albuterol or levosalbutamol/levalbuterol compared with baseline on 2 consecutive days during the treatment period, to assess increase in reliever medication during 12-week treatment period.

[2] = Asthma Daytime Symptom Diary (ADSD) score; assay type: in vivo, human; settings: for LS mean difference versus placebo, ADSD symptom score: Week 12
Source text: (§1) ADSD and ANSD are PRO measures developed by the PRO Consortium′ Asthma Working Group. Both instruments have been designed to measure asthma symptoms in adult and adolescent (12 years of age and older) patients diagnosed with mild to severe asthma. ADSD and ANSD assess asthma severity based on patient self-report of asthma core symptoms.
(§2) Other efficacy endpoints included: • Change from baseline in pre- and post-bronchodilator FEV1 and other lung function measurement (peak expiratory flow (PEF), forced vital capacity (FVC), forced expiratory flow (FEF) 25-75%) at each spirometry endpoint. • Asthma Control Questionnaire-5 (ACQ-5) score change from baseline at EOT and at each assessment time point. • Asthma Quality of Life Questionnaire with Standardized Activities (AQLQ(S)) Self-Administered score change from baseline at EOT and at each assessment time point. • Change from baseline at EOT and change from baseline at each week for asthma symptom scores in the morning and evening (ADSD and ANSD). Questionnaire was to be administered daily and score averaged weekly for analysis. • Change from baseline at EOT and change from baseline at each week in number of inhalations/day of albuterol or levalbuterol for symptom relief.
(§3) The ADSD and ANSD are PRO measures developed by the PRO Consortium′ Asthma Working Group. Both instruments have been designed to measure asthma symptoms in adult and adolescent (12 years of age and older) patients diagnosed with mild to severe asthma. ADSD and ANSD assess asthma severity based on patient self-report of asthma core symptoms, i.e., difficulty of breathing; wheezing; shortness of breath; chest tightness; chest pain; and cough. Patients were asked to complete the ADSD every night before they went to bed, thinking about their asthma symptoms on that day, from when they got up this morning until then; the ANSD when getting up, thinking about their asthma symptoms from the previous night from when they went to bed until then.
(§4) Both the ADSD and ANSD are composed of 6 items rated using an 11-point NRS that ranges from 0=None to 10=As bad as you can imagine (Gater et al. 2016). The participants were to record their daytime and nighttime asthma symptoms in an electronic diary, once in the evening and once in the morning, respectively. The participants were to complete the ADSD and the ANSD.

[3] = Asthma Nighttime Symptom Diary (ANSD) score; assay type: in vivo, human; settings: for LS mean difference versus placebo, ANSD symptom score: Week 12
Source text: as §1, §2, §3, §4

[4] = test system: B cell lymphocyte kinase (BLK); settings: cited from earlier work
[5] = test system: BTK; settings: over 24 h; cited from earlier work
[6] = ITP, cited from earlier work
[7] = both cohorts, Week 12, all components

SMILES: CC(C)(C=C(C#N)C(=O)N1CCC[C@@H](n2nc(-c3ccc(Oc4ccccc4)cc3F)c3c(N)ncnc32)C1)N1CCN(C2COC2)CC1 (mixture of isomers) [rilzabrutinib, (R)-2-[3-[4-amino-3-(2-fluoro-4-phenoxy-phenyl)pyrazolo[3,4-d]pyrimidin-1-yl]piperidine-1-carbonyl]-4-methyl-4-[4-(oxetan-3-yl)piperazin-1-yl]pent-2-enenitrile]
- Number of participants with ≥2 additional reliever puffs vs baseline on 2 consecutive days ([1]; 400 mg BID, N = 32): 6 participants
- Number of participants with ≥3 additional reliever puffs vs baseline on 2 consecutive days ([1]; 400 mg BID, N = 32): 3 participants
- Number of participants with ≥4 additional reliever puffs vs baseline on 2 consecutive days ([1]; 400 mg BID, N = 32): 2 participants
- Number of participants with ≥5 additional reliever puffs vs baseline on 2 consecutive days ([1]; 400 mg BID, N = 32): 2 participants
- Participants with ≥2 additional reliever puffs vs baseline on 2 consecutive days, figure in parentheses (share) ([1]; 400 mg BID, N = 32): 18.8
- Participants with ≥3 additional reliever puffs vs baseline on 2 consecutive days, figure in parentheses (share) ([1]; 400 mg BID, N = 32): 9.4
- Participants with ≥4 additional reliever puffs vs baseline on 2 consecutive days, figure in parentheses (share) ([1]; 400 mg BID, N = 32): 6.3
- Participants with ≥5 additional reliever puffs vs baseline on 2 consecutive days, figure in parentheses (share) ([1]; 400 mg BID, N = 32): 6.3
- Number of participants with ≥2 additional reliever puffs vs baseline on 2 consecutive days ([1]; 400 mg TID, N = 64): 11 participants
- Number of participants with ≥3 additional reliever puffs vs baseline on 2 consecutive days ([1]; 400 mg TID, N = 64): 4 participants
- Number of participants with ≥4 additional reliever puffs vs baseline on 2 consecutive days ([1]; 400 mg TID, N = 64): 3 participants
- Number of participants with ≥5 additional reliever puffs vs baseline on 2 consecutive days ([1]; 400 mg TID, N = 64): 1 participants
- Participants with ≥2 additional reliever puffs vs baseline on 2 consecutive days, figure in parentheses (share) ([1]; 400 mg TID, N = 64): 17.2
- Participants with ≥3 additional reliever puffs vs baseline on 2 consecutive days, figure in parentheses (share) ([1]; 400 mg TID, N = 64): 6.3
- Participants with ≥4 additional reliever puffs vs baseline on 2 consecutive days, figure in parentheses (share) ([1]; 400 mg TID, N = 64): 4.7
- Participants with ≥5 additional reliever puffs vs baseline on 2 consecutive days, figure in parentheses (share) ([1]; 400 mg TID, N = 64): 1.6
- number of participants with ≥2 to 5 additional reliever puffs compared to baseline ([1]; both cohorts, vs. placebo arms, 12-week treatment): lower in the rilzabrutinib arms compared to the placebo arms
- LS mean ADSD change from baseline at Week 12 ([2]; 400 mg BID): −0.27
- LS mean difference versus placebo, ADSD symptom score ([2]; 400 mg BID, 95% CI −1.03, 0.26, nominal p=0.2377): −0.39
- LS mean ADSD change from baseline at Week 12 ([2]; 400 mg TID): −0.43
- LS mean difference versus placebo, ADSD symptom score ([2]; 400 mg TID, 95% CI −1.15, 0.14, nominal p=0.1276): −0.50
- ADSD symptom score (in words) [2, 7]: improvement in ADSD and ANSD symptom score
- LS mean ANSD change from baseline at Week 12 ([3]; 400 mg BID): −0.35
- LS mean difference versus placebo, ANSD symptom score ([3]; 400 mg BID, 95% CI −1.33, −0.03, nominal p=0.0390): −0.68
- LS mean ANSD change from baseline at Week 12 ([3]; 400 mg TID): −0.48
- LS mean difference versus placebo, ANSD symptom score ([3]; 400 mg TID, 95% CI −1.13, 0.06, nominal p=0.0758): −0.54
- ANSD symptom score (in words) [3, 7]: improvement in ADSD and ANSD symptom score
- pIC50 [4]: 8.20
- sustained target occupancy [5]: high sustained occupancy over 24 h
- treatment-emergent serious adverse events (TESAEs) ([6]; Phase 1/2): no treatment-emergent serious adverse events (TESAEs) observed
- participants achieving the primary response endpoint ([6]; treatment for at least 12 weeks): 50%
